Results from ChEMBL document CHEMBL1201862, “PubChem BioAssay data set” (2004).
Activity calls are given as the source filed them.

Legend:
[1] = molecular target: G2/mitotic-specific cyclin-B1 (Homo sapiens, UniProt P14635); test: Counterscreen assay for inhibitors of Wee1 degradation: dose response cell-based assay to identify inhibitors of cyclin B degradation. [Related pubchem assays: 1410, 1321 ]; type: functional
[2] = Luminescence Cell-Based Dose Confirmation HTS to Identify Inhibitors of Platelet Dense Granule Release. [Related pubchem assays: 1663 (Primary HTS), 1678 (Summary of Project)]; type: functional
[3] = molecular target: T1, Kappa-type opioid receptor (Homo sapiens, UniProt P41145); type: functional
[4] = molecular target: Luciferin 4-monooxygenase (Photinus pyralis, UniProt P08659); test: firefly luciferase enzyme inhibitors, dose response, biochemical, luminescence (AID 1891)
Wee1-like protein kinase = Wee1-like protein kinase (Homo sapiens, UniProt P30291); test: Dose Response Cell-based Assay for Inhibitors of Wee1 Degradation. [Related pubchem assays: 1410, 1321 ]; type: functional
[5] = molecular target: T2, Type-1 angiotensin II receptor (Homo sapiens, UniProt P30556); test: AT1 receptor antagonists, dose response, selectivity assay for APJ receptor antagonist project, cell-based, uHTS hits (AID 463214); type: functional;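 also: antagonist potency against angiotensin II stimulated AT1 response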
T2 sequence (P30556 whole entry): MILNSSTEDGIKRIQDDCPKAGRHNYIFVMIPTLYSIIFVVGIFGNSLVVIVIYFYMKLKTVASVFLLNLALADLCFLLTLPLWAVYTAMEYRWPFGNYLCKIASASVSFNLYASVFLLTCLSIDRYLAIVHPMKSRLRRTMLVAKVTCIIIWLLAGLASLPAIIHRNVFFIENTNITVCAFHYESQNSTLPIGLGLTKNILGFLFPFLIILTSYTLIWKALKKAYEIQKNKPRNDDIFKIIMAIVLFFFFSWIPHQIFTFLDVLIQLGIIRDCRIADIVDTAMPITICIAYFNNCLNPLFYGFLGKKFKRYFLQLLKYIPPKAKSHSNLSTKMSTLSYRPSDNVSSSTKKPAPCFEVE

INS1 = test: beta cell apoptosis inhibitors, cytokine rescue, dose response, luminescence, retest (AID 449756); type: functional, cell-based; details: Rattus norvegicus;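 also: cell death triggered by IL-1 beta plus TNF-alpha plus IFN-gamma mixture; protective hits raise ATP signal compared with cytokine alone wells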
Beta-galactosidase [6] = molecular target: T3, Beta-galactosidase (Escherichia coli, UniProt Q8VNN2); test: PubChem AID 485352; type: functional
[7] = molecular target: T1, Kappa-type opioid receptor; type: functional; remark: listed apart in the source
HeLa = test: Cytotoxicity counterscreen assay for transcriptional activators of heat shock protein 70 (Hsp70). [Related pubchem assays: 1203, 1252 ]; type: functional; details: Homo sapiens;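 also: cells exposed to compound for 16 hours before readout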
[8] = molecular target: T4, Sphingosine 1-phosphate receptor 2 (Homo sapiens, UniProt O95136); test: Dose Response Cell Based Assay for Antagonists of the S1P2 Receptor. [Related pubchem assays: 856, 736 ]; type: functional
[9] = molecular target: Sphingosine 1-phosphate receptor 1 (Homo sapiens, UniProt P21453); type: functional;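 also: Tango beta-arrestin reporter U2OS cells stimulated with S1P near its EC80; inhibitor potency meaning antagonism of receptor activation by the natural agonist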
[10] = molecular target: Sphingosine 1-phosphate receptor 4 (Homo sapiens, UniProt O95977); test: Fluorescence dose response cell-based high throughput screening assay for antagonists of the Sphingosine 1-Phosphate Receptor 4 (S1P4). [Related pubchem assays: 1524 (Confirmation in triplicates.), 1510 (Primary screen.)]; type: functional
Beta-galactosidase [11] = molecular target: T3, Beta-galactosidase; type: functional
[12] = microbe, parasite or virus in culture; type: functional; details: Mycobacterium tuberculosis
[13] = cytotoxicity in HEK-293T cells, dose response, cytotoxicity control for TCR NF-kB inhibitor project, luminescence, T-cell screen hits (AID 489026); type: functional, cell-based;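 also: cells exposed to compound about 14 hours before the viability readout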
[14] = molecular target: E3 ubiquitin-protein ligase Mdm2 (Homo sapiens, UniProt Q00987); test: enhancers of MDM2-luciferase reporter signal, concentration-effect titration, project on inhibitors of MDM2 ubiquitin ligase, cellular assay, luminescent readout, 384-well plate format (AID 1394); type: functional;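 also: MDM2 E3 inhibitors raise luminescence so EC50 is for signal enhancement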
[15] = Luminescence-based dose response cell-based high throughput screening assay for cytotoxic compounds using the IEC-6 intestinal epithelial cell line. [Related pubchem assays: 1858 (Summary AID.), 1825 (Counterscreen.), 1907 (Confirmation screen.)]; type: functional
H9c2 = test: cells; type: functional, cell-based; details: Rattus norvegicus, H9c2, Myocardium;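 also: confirmatory concentration-response retest of ultra-high-throughput screening hits for modulation of myocardial damage; cell death induced by hydrogen peroxide oxidative stress; compound pretreatment for 60 min then peroxide exposure for 2 h; potency is for protecting the cells against peroxide damage rather than for killing them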
Protein skinhead-1 = molecular target: T5, Protein skinhead-1 (Caenorhabditis elegans, UniProt P34707); type: functional
T5 sequence (P34707 whole entry): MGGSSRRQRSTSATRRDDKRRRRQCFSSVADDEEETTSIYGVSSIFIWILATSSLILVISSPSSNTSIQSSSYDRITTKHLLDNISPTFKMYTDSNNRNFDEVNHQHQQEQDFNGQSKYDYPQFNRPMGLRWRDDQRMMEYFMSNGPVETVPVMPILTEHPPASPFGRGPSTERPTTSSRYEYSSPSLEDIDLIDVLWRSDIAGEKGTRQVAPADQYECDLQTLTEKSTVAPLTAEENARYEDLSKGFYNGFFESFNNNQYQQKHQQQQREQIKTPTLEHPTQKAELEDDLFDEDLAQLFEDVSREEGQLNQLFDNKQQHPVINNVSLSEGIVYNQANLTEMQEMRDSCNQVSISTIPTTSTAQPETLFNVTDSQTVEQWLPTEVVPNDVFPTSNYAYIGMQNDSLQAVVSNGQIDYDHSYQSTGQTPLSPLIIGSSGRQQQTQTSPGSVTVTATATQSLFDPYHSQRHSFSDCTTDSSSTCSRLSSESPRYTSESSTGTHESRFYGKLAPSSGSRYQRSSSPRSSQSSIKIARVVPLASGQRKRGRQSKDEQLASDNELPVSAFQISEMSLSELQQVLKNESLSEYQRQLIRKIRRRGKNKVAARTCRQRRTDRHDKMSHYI

[16] = molecular target: T6, E3 ubiquitin-protein ligase XIAP (Homo sapiens, UniProt P98170); test: Counter Screen using XIAP-Bir3 for Chemical Antagonists of Bir1/2 domains of IAP-family anti-apoptotic proteins. [Related pubchem assays (depositor defined):AID1018, AID1449, AID1514, AID1638, AID1749, AID1750, AID488957, AID488963]
[17] = molecular target: T6, E3 ubiquitin-protein ligase XIAP; test: XIAP antagonists, biochemical, IAP family, fluorescence polarization (AID 1018); type: functional
[18] = molecular target: Lysosomal acid glucosylceramidase (Homo sapiens, UniProt P04062); test: Dose response cell-based high throughput screening assay to identify enhancers of beta-glucosidase activity. [Related pubchem assays: 784 ]; type: functional
Vero = Vero cell cytotoxicity, cytotoxicity control for flavivirus capping enzyme inhibitors (AID 588742); type: functional; details: Chlorocebus sabaeus
[19] = NIH-3T3 fibroblast cytotoxicity, dose response, cytotoxicity control, cell-based, fluorescence, Alamar Blue, secondary assay (AID 2327); type: functional;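 also: NIH-3T3 mouse fibroblasts cultured with fluconazole at 8 µg/mL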
[20] = molecular target: Induced myeloid leukemia cell differentiation protein Mcl-1 (Homo sapiens, UniProt Q07820); type: functional
[21] = THP-1 cell cytotoxicity, dose response, cytotoxicity control for Vif-APOBEC3G degradation inhibitor project, THP-1 cells (AID 1117359); type: functional; details: Human immunodeficiency virus 1, THP-1
[22] = molecular target: Eukaryotic translation initiation factor 4H (Homo sapiens, UniProt Q15056); test: human eIF4H binding inhibitors, primary screen, translation initiation inhibitor project, biochemical, uHTS, fluorescence polarization (AID 2012)
[23] = molecular target: T7, Long-chain-fatty-acid--AMP ligase FadD28 (Mycobacterium tuberculosis, UniProt P9WQ59); test: Fluorescence polarization aasay to screen for inhibitors that compete for the binding of FadD28 to a bisubstrate Measured in Biochemical System Using Plate Reader - 2147-01_Inhibitor_Dose_CherryPick_Activity.; type: functional, Mycobacterium tuberculosis H37Rv
T7 sequence (P9WQ59 whole entry): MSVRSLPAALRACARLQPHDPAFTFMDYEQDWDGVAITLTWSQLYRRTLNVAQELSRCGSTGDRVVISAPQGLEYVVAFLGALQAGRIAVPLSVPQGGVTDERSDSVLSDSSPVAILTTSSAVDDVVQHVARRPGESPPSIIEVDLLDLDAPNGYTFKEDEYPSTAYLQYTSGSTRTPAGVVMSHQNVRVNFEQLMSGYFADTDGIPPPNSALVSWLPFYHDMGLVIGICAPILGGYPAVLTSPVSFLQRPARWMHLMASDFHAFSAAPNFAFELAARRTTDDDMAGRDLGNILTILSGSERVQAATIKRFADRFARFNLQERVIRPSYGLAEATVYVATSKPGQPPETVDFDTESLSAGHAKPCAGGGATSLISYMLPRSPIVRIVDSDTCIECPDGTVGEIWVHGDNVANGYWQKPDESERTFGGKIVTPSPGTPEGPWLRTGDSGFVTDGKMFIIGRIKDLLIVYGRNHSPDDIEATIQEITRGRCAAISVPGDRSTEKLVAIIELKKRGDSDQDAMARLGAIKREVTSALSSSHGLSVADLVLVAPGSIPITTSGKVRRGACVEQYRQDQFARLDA

Protein Tat = Protein Tat (Human immunodeficiency virus type 1 group M subtype B (isolate HXB2)(HIV-1), UniProt P04608); type: functional;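 also: tat binding to TAR RNA read out by fluorescence polarization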
[24] = molecular target: T8, Mannose-6-phosphate isomerase (Homo sapiens, UniProt P34949); test: inhibitors of human PMI, primary screen, biochemical, fluorescence intensity, coupled assay (AID 1209)
T8 sequence (P34949 whole entry): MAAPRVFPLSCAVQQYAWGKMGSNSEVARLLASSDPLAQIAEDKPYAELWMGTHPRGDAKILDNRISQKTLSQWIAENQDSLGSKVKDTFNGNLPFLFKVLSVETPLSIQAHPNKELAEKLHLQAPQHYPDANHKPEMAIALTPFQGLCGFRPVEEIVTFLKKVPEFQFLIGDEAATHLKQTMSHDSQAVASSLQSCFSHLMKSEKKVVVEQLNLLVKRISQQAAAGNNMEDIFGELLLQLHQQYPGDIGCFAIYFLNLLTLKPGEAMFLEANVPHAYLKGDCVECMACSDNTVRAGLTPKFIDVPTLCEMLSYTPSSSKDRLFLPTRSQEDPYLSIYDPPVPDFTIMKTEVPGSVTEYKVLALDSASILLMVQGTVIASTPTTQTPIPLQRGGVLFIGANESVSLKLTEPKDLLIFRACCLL

[25] = C. albicans growth with fluconazole, confirmation, fluorescence, retest (AID 2467); type: functional, cell-based
[26] = molecular target: Polyadenylate-binding protein 1 (Homo sapiens, UniProt P11940); test: PABP poly(A) RNA binding inhibitors, primary screen, biochemical, fluorescence polarization, uHTS (AID 2014)
[27] = Vero cell cytotoxicity, dose response, cytotoxicity control for Vif-APOBEC3G degradation inhibitor project, Vero cells (AID 1117358); type: functional; details: Human immunodeficiency virus 1, Vero
Genome polyprotein = Genome polyprotein (dengue virus type 2, UniProt P29990); test: Dengue-2 NS5 methyltransferase inhibitors, primary screen, biochemical, confirmation dose response (AID 588689); type: functional
Estrogen receptor beta [28] = molecular target: T9, Estrogen receptor beta (Homo sapiens, UniProt Q92731);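 also: recombinant ER-beta bound to coactivator SRC1 peptide in presence of estradiol agonist; inhibitors block coactivator peptide binding and lower the FRET signal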
Estrogen receptor = Estrogen receptor (Homo sapiens, UniProt P03372);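 also: potency for inhibiting coactivator peptide recruitment to the receptor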
Estrogen receptor beta [29] = molecular target: T9, Estrogen receptor beta; test: ERβ–SRC-3 coactivator interaction inhibitors, confirmation, orthogonal assay, biochemical, ELISA, streptavidin-HRP readout (AID 1060)
[30] = molecular target: Mothers against decapentaplegic homolog 3 (Homo sapiens, UniProt P84022); test: Smad3 binding inhibitors, lysate ELISA, dose response, cell lysate, secondary confirmation, chemiluminescent ELISA, HEK293 lysate (AID 1058); type: functional
[31] = molecular target: Neuropeptide Y receptor type 1 (Homo sapiens, UniProt P25929); type: functional;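 also: HEK293 cells with a CNG channel challenged with NPY then isoproterenol; potency as antagonist that reverses NPY suppression of cAMP signal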
[32] = molecular target: Neuropeptide Y receptor type 2 (Homo sapiens, UniProt P49146); type: functional, cell-based;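 also: HEK293 cells expressing the receptor and a CNG channel; stimulus was NPY near EC95 followed by isoproterenol to raise cAMP; antagonist potency measured as restoring cAMP signal that NPY suppresses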
[33] = molecular target: T4, Sphingosine 1-phosphate receptor 2; test: Dose Response Cell Based Assay for Agonists of the S1P2 Receptor of Purchased Analogues. [Related pubchem assays: 729, 843, 854, 736 ]; type: functional

T1 sequence (P41145 whole entry): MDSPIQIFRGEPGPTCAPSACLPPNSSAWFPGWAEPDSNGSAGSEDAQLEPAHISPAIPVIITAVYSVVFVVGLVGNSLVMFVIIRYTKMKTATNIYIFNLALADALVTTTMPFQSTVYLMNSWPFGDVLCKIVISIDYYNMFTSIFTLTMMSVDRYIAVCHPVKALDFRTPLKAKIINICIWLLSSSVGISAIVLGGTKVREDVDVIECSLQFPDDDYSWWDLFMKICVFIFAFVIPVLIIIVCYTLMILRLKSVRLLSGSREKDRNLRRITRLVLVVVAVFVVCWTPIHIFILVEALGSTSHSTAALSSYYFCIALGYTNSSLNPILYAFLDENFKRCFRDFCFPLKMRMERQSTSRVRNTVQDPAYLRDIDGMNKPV
T9 sequence (Q92731 whole entry): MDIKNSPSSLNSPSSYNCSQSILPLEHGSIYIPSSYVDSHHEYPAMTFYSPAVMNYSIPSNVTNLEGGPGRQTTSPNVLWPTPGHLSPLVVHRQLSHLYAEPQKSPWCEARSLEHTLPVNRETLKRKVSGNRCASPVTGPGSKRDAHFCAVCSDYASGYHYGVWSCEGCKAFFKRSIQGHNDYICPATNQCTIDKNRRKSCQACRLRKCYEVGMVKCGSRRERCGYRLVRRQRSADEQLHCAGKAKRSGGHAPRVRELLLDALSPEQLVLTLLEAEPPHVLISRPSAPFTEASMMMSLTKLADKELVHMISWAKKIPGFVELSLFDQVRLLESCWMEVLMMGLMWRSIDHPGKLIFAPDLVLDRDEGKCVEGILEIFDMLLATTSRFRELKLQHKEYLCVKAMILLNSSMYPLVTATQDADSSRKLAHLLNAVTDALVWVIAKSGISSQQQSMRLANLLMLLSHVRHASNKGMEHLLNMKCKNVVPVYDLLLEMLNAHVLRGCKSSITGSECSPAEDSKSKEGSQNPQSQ
Luciferin 4-monooxygenase, sequence (P08659 whole entry): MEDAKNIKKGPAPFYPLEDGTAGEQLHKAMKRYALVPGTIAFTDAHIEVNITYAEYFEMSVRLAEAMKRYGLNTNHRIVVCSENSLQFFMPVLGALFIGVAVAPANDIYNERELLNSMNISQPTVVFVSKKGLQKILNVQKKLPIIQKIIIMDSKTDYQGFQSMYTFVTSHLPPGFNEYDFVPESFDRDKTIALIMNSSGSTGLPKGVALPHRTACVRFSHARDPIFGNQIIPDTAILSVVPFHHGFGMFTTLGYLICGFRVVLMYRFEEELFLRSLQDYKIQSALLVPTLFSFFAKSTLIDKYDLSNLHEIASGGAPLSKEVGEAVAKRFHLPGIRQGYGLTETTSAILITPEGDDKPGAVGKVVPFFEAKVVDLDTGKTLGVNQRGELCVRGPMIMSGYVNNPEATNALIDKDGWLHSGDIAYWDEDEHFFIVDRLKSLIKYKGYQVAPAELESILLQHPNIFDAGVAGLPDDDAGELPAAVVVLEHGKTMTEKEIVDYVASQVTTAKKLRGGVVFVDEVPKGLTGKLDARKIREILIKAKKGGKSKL
T6 sequence (P98170 whole entry): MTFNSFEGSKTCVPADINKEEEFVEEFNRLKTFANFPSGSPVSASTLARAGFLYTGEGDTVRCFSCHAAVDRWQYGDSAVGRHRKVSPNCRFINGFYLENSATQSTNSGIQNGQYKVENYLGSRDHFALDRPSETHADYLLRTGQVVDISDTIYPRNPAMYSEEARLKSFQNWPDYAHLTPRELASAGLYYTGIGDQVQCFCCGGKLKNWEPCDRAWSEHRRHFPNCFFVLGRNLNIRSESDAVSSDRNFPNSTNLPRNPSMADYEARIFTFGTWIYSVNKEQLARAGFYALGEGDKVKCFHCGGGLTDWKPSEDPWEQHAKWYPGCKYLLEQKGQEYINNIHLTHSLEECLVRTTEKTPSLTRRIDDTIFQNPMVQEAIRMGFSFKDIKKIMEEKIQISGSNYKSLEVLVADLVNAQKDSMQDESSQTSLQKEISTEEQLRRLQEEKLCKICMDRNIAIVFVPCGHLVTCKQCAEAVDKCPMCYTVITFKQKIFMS
T4 sequence (O95136 whole entry): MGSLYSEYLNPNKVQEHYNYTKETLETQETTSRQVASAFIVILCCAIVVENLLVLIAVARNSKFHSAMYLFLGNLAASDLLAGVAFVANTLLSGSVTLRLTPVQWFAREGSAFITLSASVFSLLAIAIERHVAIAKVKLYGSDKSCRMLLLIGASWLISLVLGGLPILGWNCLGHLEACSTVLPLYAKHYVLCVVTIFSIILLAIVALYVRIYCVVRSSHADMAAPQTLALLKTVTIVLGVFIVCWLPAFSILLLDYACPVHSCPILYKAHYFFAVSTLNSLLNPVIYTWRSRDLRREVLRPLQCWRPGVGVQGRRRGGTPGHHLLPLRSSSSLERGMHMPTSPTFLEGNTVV
T3 sequence (Q8VNN2 whole entry): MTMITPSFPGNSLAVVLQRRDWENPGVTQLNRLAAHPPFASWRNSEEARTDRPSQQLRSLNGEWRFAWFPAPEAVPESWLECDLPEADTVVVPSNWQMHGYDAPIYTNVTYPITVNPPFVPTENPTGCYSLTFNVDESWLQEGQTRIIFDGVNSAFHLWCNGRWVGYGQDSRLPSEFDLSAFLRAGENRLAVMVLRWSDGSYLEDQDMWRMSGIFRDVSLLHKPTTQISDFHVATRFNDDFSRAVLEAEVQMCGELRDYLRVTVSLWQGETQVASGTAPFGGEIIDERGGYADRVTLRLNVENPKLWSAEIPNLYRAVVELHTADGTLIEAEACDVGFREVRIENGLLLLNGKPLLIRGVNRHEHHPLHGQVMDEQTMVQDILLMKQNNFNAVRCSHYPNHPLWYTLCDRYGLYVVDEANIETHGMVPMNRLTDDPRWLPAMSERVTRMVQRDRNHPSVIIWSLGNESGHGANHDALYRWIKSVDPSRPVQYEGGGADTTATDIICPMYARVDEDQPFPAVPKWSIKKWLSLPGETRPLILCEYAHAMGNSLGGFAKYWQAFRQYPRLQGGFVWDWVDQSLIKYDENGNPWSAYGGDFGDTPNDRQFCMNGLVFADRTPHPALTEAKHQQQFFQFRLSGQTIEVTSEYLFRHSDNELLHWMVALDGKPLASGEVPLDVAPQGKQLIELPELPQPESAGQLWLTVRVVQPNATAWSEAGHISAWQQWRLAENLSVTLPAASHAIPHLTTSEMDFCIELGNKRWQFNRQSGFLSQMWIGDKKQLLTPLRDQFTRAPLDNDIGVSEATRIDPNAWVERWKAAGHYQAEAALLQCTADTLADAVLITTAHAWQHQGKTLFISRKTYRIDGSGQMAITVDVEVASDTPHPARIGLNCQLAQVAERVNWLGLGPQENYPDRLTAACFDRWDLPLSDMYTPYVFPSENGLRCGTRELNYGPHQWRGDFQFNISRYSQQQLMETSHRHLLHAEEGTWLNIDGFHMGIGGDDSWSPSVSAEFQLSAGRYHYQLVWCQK
Sphingosine 1-phosphate receptor 4, sequence (O95977 whole entry): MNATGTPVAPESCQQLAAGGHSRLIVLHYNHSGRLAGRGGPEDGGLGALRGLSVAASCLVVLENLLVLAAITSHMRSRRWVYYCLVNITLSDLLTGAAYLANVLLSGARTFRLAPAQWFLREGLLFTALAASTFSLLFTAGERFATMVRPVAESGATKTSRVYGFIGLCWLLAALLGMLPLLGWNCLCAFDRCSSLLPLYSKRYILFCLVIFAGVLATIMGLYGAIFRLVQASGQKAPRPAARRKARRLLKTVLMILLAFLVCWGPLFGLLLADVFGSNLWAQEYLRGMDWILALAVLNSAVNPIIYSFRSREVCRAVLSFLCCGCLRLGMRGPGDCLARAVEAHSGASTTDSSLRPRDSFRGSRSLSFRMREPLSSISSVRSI
Sphingosine 1-phosphate receptor 1, sequence (P21453 whole entry): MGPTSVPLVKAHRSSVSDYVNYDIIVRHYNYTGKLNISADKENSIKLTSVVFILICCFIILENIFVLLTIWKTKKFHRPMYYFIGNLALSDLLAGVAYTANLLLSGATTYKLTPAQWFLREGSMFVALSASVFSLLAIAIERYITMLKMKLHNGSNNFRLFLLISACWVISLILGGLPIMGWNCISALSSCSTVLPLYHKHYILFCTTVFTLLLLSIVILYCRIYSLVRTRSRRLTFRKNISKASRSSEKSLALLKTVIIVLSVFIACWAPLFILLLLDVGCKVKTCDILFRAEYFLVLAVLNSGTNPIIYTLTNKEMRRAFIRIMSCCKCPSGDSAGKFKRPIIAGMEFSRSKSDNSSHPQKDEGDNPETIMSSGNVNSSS
G2/mitotic-specific cyclin-B1, sequence (P14635 whole entry): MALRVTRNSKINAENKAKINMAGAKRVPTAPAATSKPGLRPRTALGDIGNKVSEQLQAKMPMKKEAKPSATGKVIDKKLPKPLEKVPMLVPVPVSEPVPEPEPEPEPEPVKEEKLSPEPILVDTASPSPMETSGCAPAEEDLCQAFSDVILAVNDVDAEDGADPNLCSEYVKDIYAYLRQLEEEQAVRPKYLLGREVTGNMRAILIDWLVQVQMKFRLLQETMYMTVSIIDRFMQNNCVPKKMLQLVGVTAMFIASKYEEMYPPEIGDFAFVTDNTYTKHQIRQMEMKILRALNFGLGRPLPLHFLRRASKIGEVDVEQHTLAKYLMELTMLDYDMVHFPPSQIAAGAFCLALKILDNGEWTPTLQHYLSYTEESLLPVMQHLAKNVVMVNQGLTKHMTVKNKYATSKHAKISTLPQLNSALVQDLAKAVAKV
Neuropeptide Y receptor type 2, sequence (P49146 whole entry): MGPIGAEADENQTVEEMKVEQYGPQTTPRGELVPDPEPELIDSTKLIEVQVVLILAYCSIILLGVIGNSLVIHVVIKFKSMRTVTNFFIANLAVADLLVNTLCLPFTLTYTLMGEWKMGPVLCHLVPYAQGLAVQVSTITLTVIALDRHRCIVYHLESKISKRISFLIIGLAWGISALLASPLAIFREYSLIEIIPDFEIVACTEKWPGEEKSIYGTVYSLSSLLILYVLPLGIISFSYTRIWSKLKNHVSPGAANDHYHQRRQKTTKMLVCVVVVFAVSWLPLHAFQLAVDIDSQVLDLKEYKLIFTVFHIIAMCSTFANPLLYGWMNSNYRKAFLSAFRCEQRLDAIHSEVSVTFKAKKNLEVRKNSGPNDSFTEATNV

Structure (SMILES): COc1ccc(NC(=O)/C(Cl)=C(/Cl)[S+]([O-])Cc2ccc(C)cc2)cn1 (stereo not given)
- EC50 [1]: > 49.7 µM (not active)
- EC50 [2]: 5.74 µM (active)
- IC50 [3]: 4.71 µM
- EC50 [4]: > 112 µM (not active)
- EC50 (Wee1-like protein kinase): > 49.7 µM (not active)
- IC50 [5]: 2.26 µM (active)
- AC50 (INS1): 0.855 µM (active)
- EC50 (Beta-galactosidase [6]): > 40 µM (inactive)
- IC50 [7]: 3.76 µM (active)
- CC50 (HeLa): 1.12 µM (active)
- IC50 [8]: 0.967 µM (active)
- IC50 [9]: 4.46 µM (active)
- IC50 [10]: 0.396 µM (active)
- EC50 (Beta-galactosidase [11]): > 31.5 µM (inactive)
- CC50 [12]: 2.13 µM (active)
- IC50 [13]: 29.8 µM (inactive)
- EC50 [14]: 0.96 µM (active)
- IC50 [15]: 0.879 µM (active)

Structure (SMILES): Cc1ccc2cc3c(NC(=O)c4cccnc4)nn(C)c3nc2c1
- IC50 (H9c2): > 79 µM (inactive)
- IC50 (Protein skinhead-1): > 100 µM (inactive)
- IC50 [16]: > 100 µM (inactive)
- IC50 [17]: > 100 µM (not active)

Structure (SMILES): CN(CC(=O)Nc1ccc(F)c(F)c1)S(=O)(=O)c1cccc2nsnc12
- EC50 [18]: > 50 µM (not active)

Structure (SMILES): C/N=c1\scc(-c2cccs2)n1/N=C/c1ccc(O)c(O)c1O
- CC50 (Vero): 13 µM (active)
- EC50 [19]: > 150 µM (inactive)
- EC50 [2]: 1.53 µM (active)
- EC50 [4]: 0.636 µM (active)
- IC50 [20]: 7.08 µM (active)
- CC50 [21]: 12.1 µM (active)
- IC50 [22]: 59.2 µM (active)
- AC50 [23]: > 100 µM (inactive)
- IC50 (Protein Tat): 98.1 µM (inconclusive)
- IC50 [24]: 15.5 µM (active)
- EC50 [25]: > 38 µM (not active)
- IC50 [26]: > 100 µM (inactive)
- CC50 [27]: > 40 µM (active)
- IC50 (Genome polyprotein): 70.7 µM (active)

Structure (SMILES): Cc1occc1C(=O)Nc1ccccc1NC(=O)c1ccoc1C
- IC50 (Estrogen receptor beta [28]): > 50 µM (not active)
- IC50 (Estrogen receptor): > 50 µM (not active)
- IC50 (Estrogen receptor beta [29]): 0.155 µM (not active)

Structure (SMILES): COc1ccc(C(c2cc3c(cc2O)OCO3)N2CCOCC2)cc1 (stereo not given)
- IC50 [30]: 6.51 µM (not active)

Structure (SMILES): O=C(CSc1nc2ccccc2o1)c1ccc2c(c1)OCCO2
- IC50 [31]: 11.3 µM (not active)
- IC50 [32]: 18.3 µM (not active)
- IC50 (Protein skinhead-1): > 100 µM (inactive)

Structure (SMILES): Cc1cc(C)nc(SCC(=O)OCC(=O)c2cc(C)n(Cc3ccccc3)c2C)n1
- EC50 [33]: > 30 µM (not active)
